Laboratory results as given in ChEMBL document CHEMBL1201862, “PubChem BioAssay data set” (2004).
Active and inactive are the calls of the source. Rule as the data show it, for most assays here: actives have a measured IC50 and inactives only a lower limit.

Columns and labels:
[1] = target: T1, Alkaline phosphatase, tissue-nonspecific isozyme (Homo sapiens, UniProt P05186); assay: human TNAP enzyme inhibitors, SAR follow-up, biochemical, luminescent, dose response (AID 1056)
T1 sequence (P05186 whole entry): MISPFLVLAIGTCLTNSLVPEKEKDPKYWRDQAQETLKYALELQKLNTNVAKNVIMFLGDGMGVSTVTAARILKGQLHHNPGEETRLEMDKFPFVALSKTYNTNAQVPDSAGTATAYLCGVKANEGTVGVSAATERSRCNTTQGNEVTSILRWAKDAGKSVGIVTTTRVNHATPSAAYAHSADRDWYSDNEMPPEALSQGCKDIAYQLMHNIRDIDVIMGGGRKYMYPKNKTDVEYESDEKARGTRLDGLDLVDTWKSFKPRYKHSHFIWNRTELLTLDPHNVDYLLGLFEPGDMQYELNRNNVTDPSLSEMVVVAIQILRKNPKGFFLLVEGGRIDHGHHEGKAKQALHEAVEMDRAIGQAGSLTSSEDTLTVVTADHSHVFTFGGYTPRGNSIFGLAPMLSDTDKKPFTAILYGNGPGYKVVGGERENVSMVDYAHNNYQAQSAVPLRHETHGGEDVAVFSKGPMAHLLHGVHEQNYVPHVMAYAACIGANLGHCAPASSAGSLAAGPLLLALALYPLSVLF

[2] = target: Alkaline phosphatase, placental type (Homo sapiens, UniProt P05187); assay: PLAP enzyme inhibitors, confirmation, biochemical, luminescence (AID 1512); format: functional
[3] = target: Glyceraldehyde-3-phosphate dehydrogenase (Homo sapiens, UniProt P04406)
Saccharomyces cerevisiae = assay: NALP1 inhibitor project selectivity study, Caspase-1/ASC signal blockade IC50 in S. cerevisiae (AID 488863); format: functional, organism-based
[4] = target: ATP-dependent molecular chaperone HSP82 (Candida albicans (strain WO-1) (Yeast), UniProt C4YTQ8); assay: loss of DOC-induced GRE-beta-galactosidase reporter signal, dose response, Hsp90 inhibitor project, S. cerevisiae, luminescence (AID 2400); format: functional, cell-based;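 also: beta-galactosidase luminescence from glucocorticoid response element reporter as proxy for Hsp90 function; inhibitor potency where signal loss means Hsp90 inhibition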
[5] = target: NACHT, LRR and PYD domains-containing protein 1 (Homo sapiens, UniProt Q9C000); assay: NALP1 inhibitors in yeast, dose response, luminescent (AID 488860); format: functional
[6] = NIH-3T3 fibroblast cytotoxicity, dose response, cytotoxicity control, cell-based, fluorescence, Alamar Blue, secondary assay (AID 2327); format: functional;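 also: NIH-3T3 mouse fibroblasts cultured with fluconazole at 8 µg/mL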
[7] = C. albicans growth with fluconazole, confirmation, fluorescence, retest (AID 2467); format: functional, cell-based
[8] = target: T2, Serine/threonine-protein phosphatase (Candida dubliniensis (strain CD36 / CBS 7987 / NCPF 3949 / NRRLY-17841) (Yeast), UniProt B9W6M3); assay: calcineurin pathway inhibitors in yeast reporter, dose response, S. cerevisiae, CDRE-lacZ, luminescence, secondary (AID 2388); format: functional, cell-based;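 also: yeast reporter cells carrying a calcineurin-responsive lacZ construct stimulated with calcium chloride; luminescent beta-galactosidase reporter signal in whole cells rather than isolated phosphatase activity; potency for inhibition where a drop in reporter signal means calcineurin blockade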
T2 sequence (B9W6M3 whole entry): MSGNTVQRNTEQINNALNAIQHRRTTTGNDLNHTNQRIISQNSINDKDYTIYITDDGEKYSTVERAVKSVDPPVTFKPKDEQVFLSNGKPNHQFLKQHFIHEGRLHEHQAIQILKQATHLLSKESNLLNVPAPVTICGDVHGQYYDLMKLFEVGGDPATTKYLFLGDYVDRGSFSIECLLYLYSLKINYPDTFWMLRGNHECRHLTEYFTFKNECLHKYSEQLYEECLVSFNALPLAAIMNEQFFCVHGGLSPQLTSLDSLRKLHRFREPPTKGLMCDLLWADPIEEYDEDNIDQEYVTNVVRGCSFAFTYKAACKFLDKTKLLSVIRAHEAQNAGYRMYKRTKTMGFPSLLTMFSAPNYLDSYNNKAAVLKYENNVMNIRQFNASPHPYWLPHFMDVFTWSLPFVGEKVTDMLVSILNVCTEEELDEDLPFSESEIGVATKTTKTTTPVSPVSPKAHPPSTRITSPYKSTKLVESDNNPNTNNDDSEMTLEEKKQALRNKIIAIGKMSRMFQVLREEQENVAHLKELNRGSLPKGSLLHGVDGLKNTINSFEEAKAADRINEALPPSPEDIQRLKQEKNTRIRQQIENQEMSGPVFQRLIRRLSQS

[9] = target: Neuropeptides B/W receptor type 1 (Homo sapiens, UniProt P48145); assay: GPR7 antagonist potency, late-stage follow-up, cell-based, fluorescence, dose response (AID 463251); format: functional
[10] = target: Melanin-concentrating hormone receptor 1 (Homo sapiens, UniProt Q99705); assay: Late-stage fluorescence-based counterscreen for antagonists of the G-protein coupled receptor 7 (GPR7): cell-based dose response assay to identify antagonists of the melanin-concentrating hormone receptor 1 (MCHR1). [Related pubchem assays (depositor defined):AID1861, AID1880, AID1952, AID2148, AID2251, AID2257, AID485339]; format: functional;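 also: stimulated with 30 nM MCH peptide agonist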
Chain of Melanin-concentrating hormone receptor 1 (Q99705 whole entry): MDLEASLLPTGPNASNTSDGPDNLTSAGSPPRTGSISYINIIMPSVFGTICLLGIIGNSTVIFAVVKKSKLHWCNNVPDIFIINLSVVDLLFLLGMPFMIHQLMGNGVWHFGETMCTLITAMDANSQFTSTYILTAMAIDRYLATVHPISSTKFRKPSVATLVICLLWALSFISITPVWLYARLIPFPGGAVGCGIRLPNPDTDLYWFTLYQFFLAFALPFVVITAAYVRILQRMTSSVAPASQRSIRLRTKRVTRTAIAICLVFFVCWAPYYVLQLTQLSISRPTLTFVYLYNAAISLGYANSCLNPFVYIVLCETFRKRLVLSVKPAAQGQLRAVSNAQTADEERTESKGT

Chain of Glyceraldehyde-3-phosphate dehydrogenase (P04406 whole entry): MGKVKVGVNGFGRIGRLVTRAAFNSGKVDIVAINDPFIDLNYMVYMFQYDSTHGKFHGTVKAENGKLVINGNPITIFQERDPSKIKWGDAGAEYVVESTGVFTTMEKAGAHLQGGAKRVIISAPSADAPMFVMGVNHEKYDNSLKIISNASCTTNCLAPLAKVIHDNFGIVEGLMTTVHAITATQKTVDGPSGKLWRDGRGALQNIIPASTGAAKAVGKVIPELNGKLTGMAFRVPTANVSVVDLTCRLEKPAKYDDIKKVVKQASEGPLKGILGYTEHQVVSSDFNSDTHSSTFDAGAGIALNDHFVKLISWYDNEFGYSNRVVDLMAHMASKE
Chain of ATP-dependent molecular chaperone HSP82 (C4YTQ8 whole entry, the tested form may be a part): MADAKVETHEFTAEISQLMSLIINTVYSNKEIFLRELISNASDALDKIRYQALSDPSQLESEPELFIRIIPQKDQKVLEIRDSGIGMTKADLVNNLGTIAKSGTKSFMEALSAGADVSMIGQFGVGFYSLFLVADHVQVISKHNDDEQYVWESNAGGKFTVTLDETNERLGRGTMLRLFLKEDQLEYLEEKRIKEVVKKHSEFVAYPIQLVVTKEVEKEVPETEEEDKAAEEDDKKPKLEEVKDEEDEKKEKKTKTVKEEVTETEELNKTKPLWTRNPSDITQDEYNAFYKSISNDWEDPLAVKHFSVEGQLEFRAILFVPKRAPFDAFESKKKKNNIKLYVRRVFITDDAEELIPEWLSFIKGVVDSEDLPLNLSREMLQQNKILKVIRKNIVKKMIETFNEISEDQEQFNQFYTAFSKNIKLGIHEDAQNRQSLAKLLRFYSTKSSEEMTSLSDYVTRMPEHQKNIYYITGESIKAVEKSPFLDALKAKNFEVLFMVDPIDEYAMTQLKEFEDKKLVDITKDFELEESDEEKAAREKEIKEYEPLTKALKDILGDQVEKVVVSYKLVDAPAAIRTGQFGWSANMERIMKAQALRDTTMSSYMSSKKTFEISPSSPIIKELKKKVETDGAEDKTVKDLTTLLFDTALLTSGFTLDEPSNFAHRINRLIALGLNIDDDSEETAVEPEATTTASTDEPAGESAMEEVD
Chain of Alkaline phosphatase, placental type (P05187 whole entry): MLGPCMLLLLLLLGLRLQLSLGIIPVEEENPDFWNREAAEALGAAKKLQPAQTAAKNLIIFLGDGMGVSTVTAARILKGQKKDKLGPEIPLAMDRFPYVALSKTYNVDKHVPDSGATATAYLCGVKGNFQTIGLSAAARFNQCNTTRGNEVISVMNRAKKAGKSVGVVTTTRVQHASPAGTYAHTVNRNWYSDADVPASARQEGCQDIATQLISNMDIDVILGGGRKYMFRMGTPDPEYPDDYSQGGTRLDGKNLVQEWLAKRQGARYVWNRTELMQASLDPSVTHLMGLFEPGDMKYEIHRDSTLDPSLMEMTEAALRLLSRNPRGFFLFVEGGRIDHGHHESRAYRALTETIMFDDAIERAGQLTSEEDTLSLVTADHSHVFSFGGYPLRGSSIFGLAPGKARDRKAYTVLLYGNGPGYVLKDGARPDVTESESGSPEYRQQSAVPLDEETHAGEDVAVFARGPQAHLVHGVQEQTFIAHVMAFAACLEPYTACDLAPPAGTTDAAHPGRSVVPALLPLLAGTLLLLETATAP
Chain of Neuropeptides B/W receptor type 1 (P48145 whole entry): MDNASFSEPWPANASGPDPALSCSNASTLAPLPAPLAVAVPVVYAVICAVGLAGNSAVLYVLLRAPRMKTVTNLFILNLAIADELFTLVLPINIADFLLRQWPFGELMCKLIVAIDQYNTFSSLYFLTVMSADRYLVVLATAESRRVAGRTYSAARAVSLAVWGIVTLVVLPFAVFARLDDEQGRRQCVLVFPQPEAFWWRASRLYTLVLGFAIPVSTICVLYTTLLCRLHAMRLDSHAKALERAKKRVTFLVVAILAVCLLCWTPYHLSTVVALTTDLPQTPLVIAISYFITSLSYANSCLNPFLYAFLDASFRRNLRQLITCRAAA
Chain of NACHT, LRR and PYD domains-containing protein 1 (Q9C000 1-1212 limits assumed): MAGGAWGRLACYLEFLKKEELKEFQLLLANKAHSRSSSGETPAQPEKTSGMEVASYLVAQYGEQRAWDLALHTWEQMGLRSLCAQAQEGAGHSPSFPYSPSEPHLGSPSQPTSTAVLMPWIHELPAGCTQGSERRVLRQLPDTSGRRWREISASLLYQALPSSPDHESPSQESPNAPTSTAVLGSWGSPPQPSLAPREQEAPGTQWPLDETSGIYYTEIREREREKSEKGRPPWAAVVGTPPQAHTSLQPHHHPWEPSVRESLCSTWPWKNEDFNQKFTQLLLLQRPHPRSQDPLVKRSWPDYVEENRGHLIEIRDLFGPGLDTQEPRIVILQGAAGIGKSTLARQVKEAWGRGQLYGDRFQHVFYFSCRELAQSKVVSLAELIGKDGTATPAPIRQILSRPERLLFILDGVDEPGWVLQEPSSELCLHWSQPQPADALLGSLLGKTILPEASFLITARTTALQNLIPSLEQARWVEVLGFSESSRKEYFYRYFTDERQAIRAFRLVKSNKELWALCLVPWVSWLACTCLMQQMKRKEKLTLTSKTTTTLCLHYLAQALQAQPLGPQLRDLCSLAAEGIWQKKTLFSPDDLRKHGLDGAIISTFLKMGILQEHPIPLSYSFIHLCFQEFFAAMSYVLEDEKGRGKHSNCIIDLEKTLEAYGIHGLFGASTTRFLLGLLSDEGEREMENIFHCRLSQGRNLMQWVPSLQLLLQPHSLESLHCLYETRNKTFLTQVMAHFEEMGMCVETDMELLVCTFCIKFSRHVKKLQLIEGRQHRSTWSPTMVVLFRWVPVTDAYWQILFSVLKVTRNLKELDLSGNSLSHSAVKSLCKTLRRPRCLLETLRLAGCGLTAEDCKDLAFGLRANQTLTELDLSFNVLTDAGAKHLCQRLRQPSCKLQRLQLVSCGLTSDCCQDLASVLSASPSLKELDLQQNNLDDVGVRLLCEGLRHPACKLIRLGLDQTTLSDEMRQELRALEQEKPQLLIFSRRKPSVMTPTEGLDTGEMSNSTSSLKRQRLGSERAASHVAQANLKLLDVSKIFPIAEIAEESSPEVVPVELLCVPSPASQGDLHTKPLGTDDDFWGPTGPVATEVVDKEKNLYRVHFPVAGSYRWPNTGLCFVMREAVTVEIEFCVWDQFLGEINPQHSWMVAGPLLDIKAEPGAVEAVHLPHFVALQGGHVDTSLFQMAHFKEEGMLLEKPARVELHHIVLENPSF
Chain of NACHT, LRR and PYD domains-containing protein 1 (Q9C000 1213-1473 limits assumed): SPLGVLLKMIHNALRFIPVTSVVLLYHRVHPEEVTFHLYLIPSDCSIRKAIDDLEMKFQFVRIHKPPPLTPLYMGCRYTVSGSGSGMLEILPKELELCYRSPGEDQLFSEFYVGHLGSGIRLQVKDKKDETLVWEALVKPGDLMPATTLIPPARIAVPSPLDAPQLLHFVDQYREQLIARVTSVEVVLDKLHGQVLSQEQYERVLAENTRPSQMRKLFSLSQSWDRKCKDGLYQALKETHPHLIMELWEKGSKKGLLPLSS

Structure (SMILES): COc1ccc(-c2cc(-c3ccc4ccccc4c3O)n[nH]2)cc1
- IC50 [1]: > 100 µM (inactive)
- IC50 [2]: > 100 µM (inactive)
- IC50 [3]: > 100 µM (not active)

Structure (SMILES): Cc1cc2ccccn2c1C(C[N+](=O)[O-])c1c(F)cccc1Cl (stereo unspecified)
- IC50 (Saccharomyces cerevisiae): 6.44 µM (active)
- EC50 [4]: 4.47 µM (active)
- IC50 [5]: 7.92 µM (active)
- EC50 [6]: > 160 µM (inactive)
- EC50 [7]: 0.421 µM (active)
- EC50 [8]: 45.4 µM (active)

Structure (SMILES): Cc1ccc(-n2ncc(Cl)c(Oc3ccc(C(F)(F)F)cc3)c2=O)cc1
- IC50 [9]: 2.2 µM (active)
- IC50 [10]: 5.5 µM (active)
